In patent US20020028938A1, “Prostaglandin endoperoxide H synthase biosynthesis inhibitors” (priority 1997, published 2002):

Columns and labels:
[1] = molecular target: T1, recombinant human Cox-1 (r-hu Cox1) (Homo sapiens, UniProt P23219); test: Recombinant human PGHS-1 enzyme assay (RHUCX1); assay type: biochemical; conditions: for inhibition at 200 µM / inhibition at 100 µM: read-out: RHUCX1 % Inh. at Dose; for IC50: read-out: RHUCX1 IC50 (parenthetical value)
T1 construct: made in house; host or cells: baculovirus/Sf9 insect cells (microsomes)
T1 sequence (P23219 24-599): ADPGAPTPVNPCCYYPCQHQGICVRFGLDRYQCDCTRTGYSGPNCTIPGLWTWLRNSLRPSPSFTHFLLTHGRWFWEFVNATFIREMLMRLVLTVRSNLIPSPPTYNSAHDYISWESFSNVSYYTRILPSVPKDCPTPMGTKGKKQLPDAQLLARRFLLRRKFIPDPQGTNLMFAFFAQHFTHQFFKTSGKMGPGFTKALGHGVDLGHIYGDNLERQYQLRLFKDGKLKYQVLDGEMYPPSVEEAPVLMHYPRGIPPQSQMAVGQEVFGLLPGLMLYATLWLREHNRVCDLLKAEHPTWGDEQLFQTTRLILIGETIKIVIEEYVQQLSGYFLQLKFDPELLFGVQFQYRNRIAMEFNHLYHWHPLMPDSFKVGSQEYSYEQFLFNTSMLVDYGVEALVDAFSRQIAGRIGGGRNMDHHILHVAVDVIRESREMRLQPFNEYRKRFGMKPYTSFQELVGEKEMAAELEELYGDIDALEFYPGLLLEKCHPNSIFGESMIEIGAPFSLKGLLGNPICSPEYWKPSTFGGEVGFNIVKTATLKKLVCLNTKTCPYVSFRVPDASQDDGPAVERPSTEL
Outline: (§1)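 PGE2 by EIA (optical density) → % inhibition vs control-group mean → IC50 from linear regression.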

[2] = molecular target: T2, recombinant human Cox-2 (r-hu Cox-2) (Homo sapiens, UniProt P35354); test: Recombinant human PGHS-2 enzyme assay (RHUCX2); assay type: biochemical; conditions: for IC50: read-out: RHUCX2 IC50 (parenthetical value)
T2 construct: made in house; host or cells: baculovirus/Sf9 insect cells (microsomes)
T2 sequence (P35354 18-604): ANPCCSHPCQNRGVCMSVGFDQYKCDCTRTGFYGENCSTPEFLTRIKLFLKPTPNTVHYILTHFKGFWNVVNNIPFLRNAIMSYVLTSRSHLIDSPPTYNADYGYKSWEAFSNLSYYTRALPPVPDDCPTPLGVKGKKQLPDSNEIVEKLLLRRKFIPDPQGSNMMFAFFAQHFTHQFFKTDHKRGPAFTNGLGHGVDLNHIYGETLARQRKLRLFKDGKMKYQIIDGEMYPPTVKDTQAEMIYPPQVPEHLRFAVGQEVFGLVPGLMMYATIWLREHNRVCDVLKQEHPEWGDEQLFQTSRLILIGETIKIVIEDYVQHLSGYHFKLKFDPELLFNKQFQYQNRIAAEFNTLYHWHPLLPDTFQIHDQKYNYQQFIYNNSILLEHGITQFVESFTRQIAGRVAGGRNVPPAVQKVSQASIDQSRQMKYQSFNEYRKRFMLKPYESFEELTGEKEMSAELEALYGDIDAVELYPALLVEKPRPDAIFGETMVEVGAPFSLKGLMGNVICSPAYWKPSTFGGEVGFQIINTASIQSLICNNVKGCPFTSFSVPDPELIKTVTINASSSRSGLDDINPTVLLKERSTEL
Outline: as §1

[3] = molecular target: T3, Human Whole Platelet Cyclooxygenase-1 (Homo sapiens, UniProt P23219); test: Human Whole Platelet Cyclooxygenase-1 assay (HWPX); assay type: cell-based; conditions: for IC50: read-out: HWPX IC50 (parenthetical value)
T3 construct: from tissue; host or cells: human blood: isolated platelets (A4) or heparinised whole blood (A9)
T3 sequence (P23219 24-599): as the sequence (P23219 24-599) above
Outline: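 Thromboxane production was measured with a commercial kit after stimulation of washed human platelets (ACD-anticoagulated volunteer blood) by 8.8 μM final A23187 for 10 min. Test compounds were added 10 min before stimulus; cold 6 mM EDTA terminated the reaction.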

[4] = molecular target: T4, human amnionic whole cell cyclooxygenase-2 (WISH cells) (Homo sapiens, UniProt P35354); test: IL-1β induced PGE2 production in WISH cells; assay type: cell-based; conditions: read-out: Wish IC50 (parenthetical value)
T4 construct: endogenous in cells; host or cells: human amnionic WISH cells, induced with IL-1beta
T4 sequence (P35354 18-604): T2 sequence (P35354 18-604)
Outline: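 PGE2 was quantified by enzyme immunoassay (optical density read) against standards made up in the matching medium. WISH cells at 80% confluence, washed and placed in serum-free Neuman-Tytell medium, received 5 ng/ml IL-1β plus test compound or DMSO vehicle (0.01% v/v).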

[5] = test system: carrageenan induced paw edema; test: Carrageenan induced paw edema (CPE) in rats; assay type: in vivo; conditions: rat; for inhibition in vivo at 10 mg/kg: read-out: CPE % Inhib. @ 10 mpk
Method: For oral administration, test compounds were suspended on the day of use in 100% polyethyleneglycol (PEG 400) with a motorized homogenizer equipped with a Teflon-coated pestle (TRI-R Instrument, Jamaica, N.Y.).
To compare the mean responses of the treatment groups, analysis of variance was applied. Percent inhibition values were determined by comparing the individual treatment mean values to the mean of the control group. Linear regression was used to estimate IC50's/ED50's in appropriate assays.
Hingpaw edema was […] in male rats as described by Winter et al., Proc. Soc. Exp. Biol. Med., 1962, 111, 544. Briefly, male Sprague-Dawley rats weighing between 170 and 190 g were administered test compounds orally 1 hour prior to the subplantar injection of 0.1 ml of 1% sodium carrageenan (lambda carrageenan, Sigma Chemical Co., St Louis, Mo.) into the right hindpaw. Right paw volumes (ml) were measured immediately following injection of carrageenan for baseline volume measurements using a Buxco plethysmograph (Buxco Electronics, Inc., Troy, N.Y.). Three hours after the injection of carrageenan, right paws were remeasured and paw edema calculated for each rat by subtracting the zero time reading from the 3 hour reading. Data are reported as mean percent inhibition +/−SEM. Statistical significance of results was analyzed by Dunnetts multiple comparison test where p<0.05 was considered statistically significant.

[6] = test system: air pouch prostaglandin biosynthesis (Cox-2); test: Carrageenan induced air pouch prostaglandin biosynthesis model (CAP); assay type: in vivo, rat; conditions: for inhibition in vivo at 3 mg/kg: 4 h, read-out: CAP % Inhib. @ 3 mpk; for ED50: Rattus norvegicus
Outline: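 Male Sprague Dawley rats with dorsal air pouches (20 mL air day 0, 10 mL day 3) received 0.2% lambda carrageenan in saline into the pouch on day 7. Compounds dosed at 0.1 to 10 mg/kg 30 min before carrageenan; pouch lavaged 4 h later, prostaglandins measured by EIA. Percent inhibition versus control mean; ED50 by linear regression.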

[7] = 10 mpk oral, 3 hours after carrageenan
[8] = read-out: HWPX % Inhib. at Dose

| SMILES | IC50 [2] | IC50 [3] | IC50 [4] | inhibition in vivo at 10 mg/kg [5, 7] | inhibition in vivo at 3 mg/kg ([6]; 3 mpk, rat) | ED50 [6] | melting point | inhibition at 100 µM [1] | other results |
| --- | --- | --- | --- | --- | --- | --- | --- | --- | --- |
| CC(C)COc1c(-c2ccc(S(N)(=O)=O)cc2)cnn(CC(F)(F)F)c1=O [Example 449, 2-(2,2,2-Trifluoroethyl)-4-(2-methylpropoxy)-5-[4-(aminosulfonyl)phenyl]-3(2H)-pyridazinone] | 129 nM | 40000 nM | 89 nM | 23% | 76% | 1.8 mg/kg | 170 to 172 °C | – | inhibition at 200 µM [1]: 5% |
| CC(C)(C)COc1c(-c2ccc(S(C)(=O)=O)cc2)cnn(CC(F)(F)F)c1=O [Example 261] | 161 nM | 34000 nM | 99 nM | 28% | 79% | – | 145 to 146 °C | – | inhibition at 200 µM [1]: 0% |
| CS(=O)(=O)c1ccc(-c2cnn(-c3ccc(F)c(F)c3)c(=O)c2Oc2ccc(F)cc2)cc1 [Example 109, 2-(3,4-Difluorophenyl)-4-(4-fluorophenoxy)-5-[4-(methylsulfonyl)phenyl]-3(2H)-pyridazinone] | 147 nM | 2690 nM | 18 nM | 13% | 71% | – | 178 to 180 °C | 6% | – |
| CC(=O)CCOc1c(-c2ccc(S(C)(=O)=O)cc2)cnn(-c2ccc(F)c(F)c2)c1=O [Example 467, 2-(3,4-Difluorophenyl)-4-(3-oxo-1-butoxy)-5-[4-(methylsulfonyl)phenyl]-3(2H)-pyridazinone] | 1960 nM | – | 135 nM | – | – | 0.4 mg/kg | 134 to 135 °C | 4% | CPE ED30 ([5]; oral): ED30 = 1.7 |
| CC(C)CCOc1c(-c2ccc(S(C)(=O)=O)cc2)cnn(-c2cccc(Cl)c2)c1=O [Example 339, 2-(3-Chlorophenyl)-4-(3-methylbutoxy)-5-[4-(methylsulfonyl)phenyl]-3(2H)-pyridazinone] | 88 nM | 393 nM | 26 nM | 43% | 90.5% | 0.58 mg/kg | 134 to 135 °C | 2% | – |
| CC(C)(C)COc1c(-c2ccc(S(N)(=O)=O)cc2)cnn(-c2ccc(F)c(F)c2)c1=O [Example 406, 2-(3,4-Difluorophenyl)-4-(2,2-dimethylpropoxy)-5-[4-(aminosulfonyl)phenyl]-3(2H)-pyridazinone] | – | 1610 nM | 26 nM | 23% | 66.5% | – | 173 to 175 °C | 23% | inhibition at 0.01 µM ([2]; 0.01 μM, read-out: RHUCX2 % Inh. at Dose): 18%; inhibition at 0.1 µM ([2]; 0.1 μM, read-out: RHUCX2 % Inh. at Dose): 64%; inhibition at 1 µM ([2]; 1 μM, read-out: RHUCX2 % Inh. at Dose): 100% |
| CC(C)CCc1c(-c2ccc(S(N)(=O)=O)cc2)cnn(-c2ccc(F)cc2)c1=O [Example 396, 2-(4-Fluorophenyl)-4-(3-methylbutyl)-5-[4-(aminosulfonyl)phenyl]-3(2H)-pyridazinone] | 59 nM | 12700 nM | 20 nM | 23% | 85% | – | 180 to 183 °C | 22% | – |
| CC(C)CCOc1c(-c2ccc(S(N)(=O)=O)cc2)cnn(-c2ccc(F)c(F)c2)c1=O [Example 445, 2-(3,4-Difluorophenyl)-4-(3-methyl-1-butoxy)-5-[4-(aminosulfonyl)phenyl]-3(2H)-pyridazinone] | 69 nM | – | 25 nM | 15% | 73% | – | 149 to 151 °C | – | IC50 [1]: 56600 nM; inhibition at 10 µM ([3]; 10 μM, read-out: HWPX % Inhib. at Dose): 22%; inhibition at 100 µM [3, 8]: 100% |
| NS(=O)(=O)c1ccc(-c2cnn(-c3ccc(F)c(F)c3)c(=O)c2Oc2ccc(F)cc2)cc1 [Example 388, 2-(3,4-Difluophenyl)-4-(4-fluorophenoxy)-5-[4-(aminosulfonyl)phenyl]-3(2H)-pyridazinone] | 49 nM | – | 32 nM | – | – | – | – | – | RHUCX1 % Inh. at Dose (μM) ([1]; 1 μM): 36 @ 1%; RHUCX1 % Inh. at Dose (μM) ([1]; 10 μM): 74 @ 10%; HWPX % Inhib. at Dose (μM) ([3]; 0.3 μM): 0 @ .3%; CPE % Inhib. @ 10 mpk [5, 7]: 28%; CAP % Inhib. @ 3 mpk ([6]; 3 mpk, rat): 80% |
| CC(=O)NS(=O)(=O)c1ccc(-c2cnn(CC(F)(F)F)c(=O)c2OCC(C)(C)CO)cc1 [Example 528, N-[[4-[2-(2,2,2-Trifluoroethyl)-4-(3-hydroxy-2,2-dimethyl-1-propoxy)-2H-pyridazin-3-on-5-yl]phenyl]sulfonyl]acetamide] | 720 nM | 3500 nM | 54 nM | 40% | – | 1.4 mg/kg | – | – | IC50 [1]: 3400 nM |
| CC(C)CCOc1c(-c2ccc(S(C)(=O)=O)cc2)cnn(-c2ccc(F)c(F)c2)c1=O [Example 347, 2-(3,4-Difluorophenyl)-4-(3-methyl-1-butoxy)-5-[4-(methylsulfonyl)phenyl]-3(2H)-pyridazinone] | 75 nM | – | – | 27% | 66.5% | – | 121 to 123 °C | 11% | – |
| CC(C)(O)CCOc1c(-c2ccc(S(C)(=O)=O)cc2)cnn(-c2cccc(Cl)c2)c1=O [Example 475, 2-(3-Chlorophenyl)-4-(3-hydroxy-3-methyl-1-butoxy)-5-[4-(methylsulfonyl)phenyl]-3(2H)-pyridazinone] | 710 nM | – | 440 nM | 33% | – | 1.4 mg/kg | – | 0% | inhibition at 100 µM [3, 8]: 50% |
